Assay results: PubChem BioAssay AID2060619 (Molecular Pharmacology Branch, DTP, NCI, 2025)
“And” between values parts separate entries of the source, which are not always exact repeats. Equal entries are not always repeated.

Test system: 323965-272-R-J2-PDC complex spheroid viability
Test: Anticancer human tumor 323965-272-R-J2-PDC patient-derived pancreatic carcinoma cell line growth inhibition [CLK]
Settings: for viability, T/C: stronger effect = lower value
In short: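 Patient-derived tumor cells grown as complex spheroids with HUVEC endothelial cells and mesenchymal stem cells, treated with drug combinations. Concentrations descend in half-log steps from near clinical Cmax, or from 10 microM if Cmax unknown.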

[1] = curve of first compound, second compound 0.0316 µM
[2] = curve of first compound, second compound 0.1 µM
[3] = curve of first compound, second compound 0.316 µM
[4] = curve of first compound, second compound 1 µM
[5] = curve of first compound, second compound 3.16 µM
[6] = curve of first compound, second compound 10 µM
[7] = second compound 0.0316 µM, first compound 0.0316 µM
[8] = second compound 0.0316 µM, first compound 0.1 µM
[9] = second compound 0.0316 µM, first compound 0.316 µM
[10] = second compound 0.0316 µM, first compound 1 µM
[11] = second compound 0.0316 µM, first compound 3.16 µM
[12] = second compound 0.0316 µM, first compound 10 µM
[13] = second compound 0.1 µM, first compound 0.0316 µM
[14] = second compound 0.1 µM, first compound 0.1 µM
[15] = second compound 0.1 µM, first compound 0.316 µM
[16] = second compound 0.1 µM, first compound 1 µM
[17] = second compound 0.1 µM, first compound 3.16 µM
[18] = second compound 0.1 µM, first compound 10 µM
[19] = second compound 0.316 µM, first compound 0.0316 µM
[20] = second compound 0.316 µM, first compound 0.1 µM
[21] = second compound 0.316 µM, first compound 0.316 µM
[22] = second compound 0.316 µM, first compound 1 µM
[23] = second compound 0.316 µM, first compound 3.16 µM
[24] = second compound 0.316 µM, first compound 10 µM
[25] = second compound 1 µM, first compound 0.0316 µM
[26] = second compound 1 µM, first compound 0.1 µM
[27] = second compound 1 µM, first compound 0.316 µM
[28] = second compound 1 µM, first compound 1 µM
[29] = second compound 1 µM, first compound 3.16 µM
[30] = second compound 1 µM, first compound 10 µM
[31] = second compound 3.16 µM, first compound 0.0316 µM
[32] = second compound 3.16 µM, first compound 0.1 µM
[33] = second compound 3.16 µM, first compound 0.316 µM
[34] = second compound 3.16 µM, first compound 1 µM
[35] = second compound 3.16 µM, first compound 3.16 µM
[36] = second compound 3.16 µM, first compound 10 µM
[37] = second compound 10 µM, first compound 0.0316 µM
[38] = second compound 10 µM, first compound 0.1 µM
[39] = second compound 10 µM, first compound 0.316 µM
[40] = second compound 10 µM, first compound 1 µM
[41] = second compound 10 µM, first compound 3.16 µM
[42] = second compound 10 µM, first compound 10 µM
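Note: spheroids exposed to agents for seven days before readout.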
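Throughout, for viability, T/C: percent of DMSO vehicle control wells so 100% = untreated growth.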

## COc1cccc2c1C(=O)c1c(O)c3c(c(O)c1C2=O)CC(O)(C(=O)CO)CC3OC1CC(N)C(O)C(C)O1 (stereo not drawn) + CNC(=O)c1ccc(Nc2nc(OC3CCCC3)c3c(-c4ccc5nc(C)oc5c4)c[nH]c3n2)c(OC)c1
[1]
  IC50: 104 nM
[2]
  IC50: 135 nM
[3]
  IC50: < 31.6 nM
[4]
  IC50: < 31.6 nM
[5]
  IC50: < 31.6 nM
[6]
  IC50: < 31.6 nM
[7]
  viability, T/C: 69.4%
[8]
  viability, T/C: 38.1%
[9]
  viability, T/C: 41.5%
[10]
  viability, T/C: 28.1%
[11]
  viability, T/C: 19.5%
[12]
  viability, T/C: 0.64%
[13]
  viability, T/C: 73.2%
[14]
  viability, T/C: 44.8%
[15]
  viability, T/C: 39.6%
[16]
  viability, T/C: 28%
[17]
  viability, T/C: 19.7%
[18]
  viability, T/C: 0.62%
[19]
  viability, T/C: 48%
[20]
  viability, T/C: 44.1%
[21]
  viability, T/C: 29.9%
[22]
  viability, T/C: 22.7%
[23]
  viability, T/C: 13.4%
[24]
  viability, T/C: 0.67%
[25]
  viability, T/C: 40.8%
[26]
  viability, T/C: 30%
[27]
  viability, T/C: 22.7%
[28]
  viability, T/C: 17.4%
[29]
  viability, T/C: 9.89%
[30]
  viability, T/C: 0.56%
[31]
  viability, T/C: 30.6%
[32]
  viability, T/C: 30.9%
[33]
  viability, T/C: 20.8%
[34]
  viability, T/C: 13.7%
[35]
  viability, T/C: 7.23%
[36]
  viability, T/C: 0.56%
[37]
  viability, T/C: 37.2%
[38]
  viability, T/C: 25.6%
[39]
  viability, T/C: 24.2%
[40]
  viability, T/C: 15.4%
[41]
  viability, T/C: 6.06%
[42]
  viability, T/C: 0.58%

## C=CC(=O)N1CCN(c2nc(=O)n(-c3c(C)ccnc3C(C)C)c3nc(-c4c(O)cccc4F)c(F)cc23)C(C)C1 (stereo not drawn) + CNC(=O)c1ccc(Nc2nc(OC3CCCC3)c3c(-c4ccc5nc(C)oc5c4)c[nH]c3n2)c(OC)c1
[1]
  IC50: > 10000 nM
[2]
  IC50: > 10000 nM
[3]
  IC50: < 31.6 nM
[4]
  IC50: < 31.6 nM
[5]
  IC50: < 31.6 nM
[6]
  IC50: < 31.6 nM
[7]
  viability, T/C: 61.4%
[8]
  viability, T/C: 66.7%
[9]
  viability, T/C: 66.9%
[10]
  viability, T/C: 73.9%
[11]
  viability, T/C: 69%
[12]
  viability, T/C: 76.4%
[13]
  viability, T/C: 66.6%
[14]
  viability, T/C: 59.5%
[15]
  viability, T/C: 59.1%
[16]
  viability, T/C: 55.4%
[17]
  viability, T/C: 59.5%
[18]
  viability, T/C: 58.7%
[19]
  viability, T/C: 44.8%
[20]
  viability, T/C: 41.1%
[21]
  viability, T/C: 39.7%
[22]
  viability, T/C: 47.8%
[23]
  viability, T/C: 45.1%
[24]
  viability, T/C: 44.4%
[25]
  viability, T/C: 28.3%
[26]
  viability, T/C: 25.1%
[27]
  viability, T/C: 24.4%
[28]
  viability, T/C: 27.9%
[29]
  viability, T/C: 28.2%
[30]
  viability, T/C: 29%
[31]
  viability, T/C: 26.9%
[32]
  viability, T/C: 25.8%
[33]
  viability, T/C: 28.5%
[34]
  viability, T/C: 23.9%
[35]
  viability, T/C: 26.6%
[36]
  viability, T/C: 30.3%
[37]
  viability, T/C: 23.2%
[38]
  viability, T/C: 21.4%
[39]
  viability, T/C: 26.9%
[40]
  viability, T/C: 24.4%
[41]
  viability, T/C: 27.1%
[42]
  viability, T/C: 28.6%

## COc1ccc([C@@H](O)c2cc(-c3ncnc4cc(N5CCOCC5)ccc34)c(F)cc2Cl)nn1
Compound 0.0316 µM
  viability, T/C: 105% and 109%
Compound 0.1 µM
  viability, T/C: 116% and 106%
Compound 0.316 µM
  viability, T/C: 110% and 95.9%
Compound 1 µM
  viability, T/C: 92.8% and 92.9%
Compound 3.16 µM
  viability, T/C: 79.5% and 68.8%
Compound 10 µM
  viability, T/C: 50.6% and 50.3%
Curve of compound
  IC50: > 10000 nM and 9920 nM

## CC(Nc1ccc2c(c1)OCCn1cc(N3C(=O)OCC3C(F)F)nc1-2)C(N)=O (stereo not drawn) + CN1CCN(c2cc(C(=O)Nc3cc4cc(-c5cnn(C)c5)ccc4cn3)ccn2)CC1
[1]
  IC50: 7280 nM
[2]
  IC50: 327 nM
[3]
  IC50: < 31.6 nM
[4]
  IC50: < 31.6 nM
[5]
  IC50: < 31.6 nM
[6]
  IC50: < 31.6 nM
[7]
  viability, T/C: 91.5%
[8]
  viability, T/C: 78.7%
[9]
  viability, T/C: 79%
[10]
  viability, T/C: 65.6%
[11]
  viability, T/C: 55.3%
[12]
  viability, T/C: 48%
[13]
  viability, T/C: 67.6%
[14]
  viability, T/C: 58.3%
[15]
  viability, T/C: 50%
[16]
  viability, T/C: 45.1%
[17]
  viability, T/C: 37.5%
[18]
  viability, T/C: 36.7%
[19]
  viability, T/C: 27.5%
[20]
  viability, T/C: 23.4%
[21]
  viability, T/C: 18%
[22]
  viability, T/C: 19.1%
[23]
  viability, T/C: 19.2%
[24]
  viability, T/C: 14.3%
[25]
  viability, T/C: 3.27%
[26]
  viability, T/C: 4.12%
[27]
  viability, T/C: 3.78%
[28]
  viability, T/C: 2.98%
[29]
  viability, T/C: 2.66%
[30]
  viability, T/C: 2.88%
[31]
  viability, T/C: 3.35%
[32]
  viability, T/C: 3.08%
[33]
  viability, T/C: 2.69%
[34]
  viability, T/C: 2.63%
[35]
  viability, T/C: 2.26%
[36]
  viability, T/C: 2.14%
[37]
  viability, T/C: 2.98%
[38]
  viability, T/C: 3.37%
[39]
  viability, T/C: 3.23%
[40]
  viability, T/C: 2.97%
[41]
  viability, T/C: 3.87%
[42]
  viability, T/C: 2.96%
